# Data: ChEMBL document CHEMBL3988181, “GlaxoSmithKline Published Kinase Inhibitor Set 2 Onchocerca lienalis Screening Data”
# Test: GSK PKIS2: Screen against O. lienalis microfilariae, single point, at 3.1uM to assess reduction in motility. Compounds were also tested for cytotoxicity against Rhesus Monkey LLCMK2 cells.
# Format: functional, Onchocerca lienalis, LLC-MK2
# Settings: CELL_LINE LLCMK2; CELL_SUPPLIER ECACC; CONC 3.1 uM; ORGANISM_SUPPLIER Extracted from peri-umbilical skin obtained from naturally infected cattle in the UK; temperature 37 degree C
row,SMILES,MOTILITY REDUCTION/CYTOTOXICITY [%]
1,O=C(Nc1c(F)cccc1F)c1cc(C(=O)c2ccccc2F)c[nH]1,0
2,C[C@@H](Oc1cc(-n2cnc3cc(-c4cnn(C)c4)ccc32)sc1C(N)=O)c1ccccc1Cl,46.7
3,Nc1cccc(-c2ccc3c(N)n[nH]c3c2)c1,33.4
4,C[C@H]1CC[C@@H](C(=O)Nc2ccccc2)CN1c1cc(-c2ccc3c(N)n[nH]c3c2)nc(N)n1,0
5,C[C@@H]1CC[C@@H](C(=O)Nc2ccccc2)CN1c1cc(-c2ccc3c(N)n[nH]c3c2)nc(N)n1,0
6,C[C@@H]1CC[C@H](C(=O)NC2CCCCC2)CN1c1cc(-c2ccc3c(N)n[nH]c3c2)nc(N)n1,0
7,CNc1nccc(-c2ccc3c(N)n[nH]c3c2)n1,0
8,CC(C)c1cc(-c2ccc3c(N)n[nH]c3c2)nc(N)n1,0
9,CC(C)Nc1cc(-c2ccc3c(N)n[nH]c3c2)nc(N)n1,60
10,Nc1nc(-c2ccc3c(N)n[nH]c3c2)cc(N2CCCCC2)n1,0
11,c1ccc(-c2cnc3nccnn23)cc1,0
12,Fc1cccc(COc2ccc(Nc3ncnc4nn5ccccc5c34)cc2Cl)c1,0
13,CSc1cccc2c(-c3ccncn3)c(-c3ccc(F)cc3)nn12,33.4
14,Cc1ccccc1Cn1ccn2c(=O)cc(N3CCOCC3)nc12,0
15,Cc1cccc(Cn2ccn3c(=O)cc(N4CCOCC4)nc23)c1,0
16,Cc1c(Cn2c(C)c(C)n3c(=O)cc(N4CCOCC4)nc23)cccc1C(F)(F)F,0
17,COc1cc2c(Nc3ccc(NC(=O)c4ccccc4)cc3)ncnc2cc1OCCCN1CCOCC1,0
18,Clc1ccc(-c2cc(-c3c[nH]nc3-c3ccccn3)ccn2)cc1,0
19,Cn1cc(-c2ccc3c(c2)CCN3C(=O)Cc2ccccc2Cl)c2c(N)ncnc21,16.7
20,Cn1cc(-c2ccc3c(c2)CCN3C(=O)Cc2cccc(Cl)c2)c2c(N)ncnc21,0
21,COc1cccc(CC(=O)N2CCc3cc(-c4cn(C)c5ncnc(N)c45)ccc32)c1,0
22,Cn1cc(-c2ccc3c(c2)CCN3C(=O)Cc2cc(F)cc(F)c2F)c2c(N)ncnc21,0

row,SMILES,MOTILITY REDUCTION/CYTOTOXICITY [%]
1,Nc1nccc2scc(-c3ccc4c(c3)CCN4C(=O)Cc3cc(F)ccc3F)c12,0
2,Cc1ccc(CC(=O)N2CCc3cc(-c4cn(C)c5ncnc(N)c45)ccc32)cc1,0
3,COC(=O)Nc1nc2ccc(Oc3ccc(NC(=O)Nc4cccc(SC)c4)cc3)cc2[nH]1,20
4,COC(=O)Nc1nc2ccc(Oc3ccc(NC(=O)Nc4cc(C(F)(F)F)ccc4Cl)cc3)cc2[nH]1,0
5,COC(=O)Nc1nc2ccc(Oc3ccc(NC(=O)Nc4cc(C(F)(F)F)ccc4F)cc3)cc2n1C,0
6,COc1cc2ncnc(Nc3cccc(Br)c3)c2cc1OC,60
7,Fc1ccc(-c2nc3n(c2-c2ccncc2)CCS3)cc1,13.4
8,Nc1nc(-c2cccnc2)c(-c2ccnc3ccccc23)s1,33.4
9,CC1=C(C(=O)Nc2cc3cn[nH]c3cc2F)C(c2ccc(C(F)(F)F)cc2)CC(=O)N1 (configuration not stated),0
10,COc1cccc(-c2cc(-c3c[nH]nc3-c3ccccn3)ccn2)c1,0
11,Cc1ccccc1-c1cc(-c2c[nH]nc2-c2ccccn2)ccn1,0
12,Cc1c(Cn2c(C)nn3c(=O)cc(N4CCO[C@H](C)C4)nc23)cccc1C(F)(F)F,0
13,COc1ccc(NC(=O)c2ccc(-c3cc(-c4nnc(C)o4)ccc3C)cc2)cc1,33.4
14,FC(F)(F)c1ccccc1-c1cc(-c2c[nH]nc2-c2ccccn2)ccn1,0
15,N#Cc1ccc(-c2cc(-c3c[nH]nc3-c3ccccn3)ccn2)cc1,0
16,NCC(NC(=O)c1cc(-c2cccnc2)c(-c2ccnc3[nH]ccc23)s1)c1ccccc1 (configuration not stated),0
17,NC[C@H](CC1CCCCC1)NC(=O)c1cc(Br)c(-c2ccnc3[nH]ccc23)s1,0
18,CS(=O)(=O)CCNCc1nc(-c2ccc3ncnc(Nc4ccc5c(cnn5Cc5ccccc5)c4)c3c2)cs1,33.4
19,COc1ccc(COc2cc(-n3cnc4ccccc43)sc2C(N)=O)cc1,0
20,COc1cc2ncn(-c3cc(OCc4sccc4Cl)c(C(N)=O)s3)c2cc1OC,13.4
21,NC[C@H](Cc1ccc(C(F)(F)F)cc1)NC(=O)c1cc(Br)c(-c2ccnc3[nH]ccc23)s1,0
22,Cc1ccc2c(-c3ccncc3)c(-c3ccc(F)cc3)nn2c1,0

row,SMILES,MOTILITY REDUCTION/CYTOTOXICITY [%]
1,Cc1cccc2c(-c3ccncc3)c(-c3ccc(F)cc3)nn12,46.7
2,CCn1c(-c2nonc2N)nc2c(-c3ccccc3)ncc(OCCCN)c21,100
3,CCn1c(-c2nonc2N)nc2c(C#CC(C)(C)O)ncc(OCCCCN)c21,13.4
4,NC(CNC(=O)c1cc(Br)c(-c2ccnc3[nH]ccc23)s1)c1ccccc1 (configuration not stated),40
5,CS(=O)(=O)CCNCc1nc(-c2ccc3ncnc(Nc4ccc(OCc5ccccc5)c(Cl)c4)c3c2)cs1,0
6,COc1cc2ncn(-c3cc(OCCCc4ccccc4)c(C(N)=O)s3)c2cc1OC,33.4
7,Fc1ccc(-c2nn3c(OCC(F)(F)F)cccc3c2-c2ccncc2)cc1,13.4
8,COc1cc2ncn(-c3cc(OCC4CCCCC4)c(C(N)=O)s3)c2cc1OC,33.4
9,CN(C)CCNS(=O)(=O)c1ccc(-c2ccnc3[nH]ccc23)cc1,26.7
10,COc1ccc(C[C@@H](CN)NC(=O)c2cc(Br)c(-c3ccnc4[nH]ccc34)s2)cc1,33.4
11,COc1cc(Nc2nccc(-c3c(-c4cccc(NC(=O)c5c(F)cccc5F)c4)nn4ncccc34)n2)cc(OC)c1OC,16.7
12,c1ccc(Oc2ccc(Nc3ccnc4cc(-c5ccc(CN6CCCCC6)o5)ccc34)cc2)nc1,20
13,Cc1ccc(NC(=O)Nc2ccccc2F)cc1-c1ccc(C(=O)Nc2ccncc2)cc1,53.4
14,Cc1ccc(C)c(NC(=O)NC2CCN(c3ccnc(Nc4ccc(F)cc4)n3)C2)c1 (configuration not stated),33.4
15,COc1cc(Nc2nccc(N3CCC(NC(=O)C4COc5ccccc5O4)C3)n2)cc(OC)c1OC (configuration not stated),0
16,N#Cc1cccc(C(=O)NC2CCN(c3ccnc(Nc4ccc(F)cc4)n3)C2)c1 (configuration not stated),20
17,COc1cc(Nc2nccc(N3CCC(NC(=O)c4cccc(NC(C)=O)c4)C3)n2)cc(OC)c1OC (configuration not stated),33.4
18,CC(C)S(=O)(=O)N1CCN(Cc2ccc3c(c2)nc(NC(=O)c2ccsc2)n3C[C@H](O)c2ccccc2)CC1,0
19,COc1ccc(Nc2nccc(-c3cccc(NC(=O)c4cc5cc(F)ccc5[nH]4)c3)n2)cc1,53.4
20,COc1cc2nccc(Nc3cccc(Oc4ccccc4)c3)c2cc1OC,0
21,COc1ccc(CNC(=O)NC2CCN(c3ccnc(Nc4ccc(OC)cc4)n3)C2)cc1 (configuration not stated),0
22,O=C(Nc1ccccc1F)NC1CCN(c2ccnc(Nc3ccc(F)cc3)n2)C1 (configuration not stated),0

row,SMILES,MOTILITY REDUCTION/CYTOTOXICITY [%]
1,O=C(NC1CCN(c2ccnc(Nc3ccc(F)cc3)n2)C1)c1cc2ccccc2s1 (configuration not stated),0
2,O=C(Nc1ccc2c(c1)OCO2)NC1CCN(c2ccnc(Nc3ccc(F)cc3)n2)C1 (configuration not stated),33.4
3,NC(=O)c1cccc(Nc2nccc(Nc3ccc(Oc4cccc(Cl)c4)c(Cl)c3)n2)c1,20
4,CCCc1ccc(S(=O)(=O)NC2CCN(c3ccnc(Nc4ccc(F)cc4)n3)C2)cc1 (configuration not stated),0
5,COc1cc(Nc2ccnc3ccc(C(F)(F)F)cc23)cc(OC)c1OC,0
6,Cc1ccc(F)c(C(=O)Nc2cccc(-c3nn4ccccc4c3-c3ccnc(Nc4cccc(F)c4)n3)c2)c1F,0
7,c1ccc(Oc2ccc(Nc3ccnc4cc(-c5ccc(CNCCN6CCOCC6)o5)ccc34)cc2)nc1,0
8,CCCc1ccc(S(=O)(=O)NC2CCN(c3ccnc(Nc4ccc(OC)cc4)n3)C2)cc1 (configuration not stated),0
9,CC(C(=O)NC1CCN(c2ccnc(Nc3ccc(F)cc3)n2)C1)c1ccc(Cl)cc1 (configuration not stated),33.4
10,Cc1ccc(NC(=O)Nc2ccc(Cl)c(C(F)(F)F)c2)cc1-c1ccc(C(=O)Nc2ccncc2)cc1,40
11,COc1cc(Nc2nccc(N3CCC(NC(=O)c4cc5ccccc5s4)C3)n2)cc(OC)c1OC (configuration not stated),0
12,COc1ccc(Nc2nccc(N3CCC(NC(=O)c4cccc(NC(C)=O)c4)C3)n2)cc1 (configuration not stated),0
13,COc1cc2nccc(Nc3ccc(NC(=O)c4ccc(C)cc4)c(O)c3)c2cc1OC,0
14,Cc1ccc(S(=O)(=O)Nc2ccc(Nc3nccc(Nc4cccc5[nH]ncc45)n3)cc2)cc1,0
15,COC(=O)c1cccc(NC(=O)NC2CCN(c3ccnc(Nc4ccc(F)cc4)n3)C2)c1 (configuration not stated),0
16,Fc1cc(Cl)ccc1Nc1ccnc2cc(-c3ccc(CN4CCSCC4)o3)ccc12,33.4
17,COc1cc(Nc2nccc(-c3c(-c4cccc(NC(=O)c5c(F)cccc5F)c4)nn4ccccc34)n2)cc(OC)c1OC,20
18,CNC(=O)c1ccccc1Nc1nc(Nc2cccc(CS(C)(=O)=O)c2)ncc1C,33.4
19,COc1cc2c(Nc3cccc(NC(=O)c4ccccc4)c3)ncnc2cc1OCCCN1CCOCC1,0
20,Nc1ncc(-c2ccc3nccc(-c4ccncc4)c3c2)cc1S(=O)(=O)N1CCOCC1,40
21,Cc1occc1-c1ncc(OC[C@@H](N)Cc2c[nH]c3ccccc23)cc1-c1ccc2[nH]nc(C)c2c1,0
